These compounds were tested against T1, SWI/SNF-related matrix-associated actin-dependent regulator of chromatin subfamily A member 2 (Homo sapiens, UniProt P51531) (assay: Induction of thermal stabilization of SMARCA2 (unknown origin) assessed as change in melting temperature by fluorescence based thermal shift assay).
T1 sequence (P51531 whole entry): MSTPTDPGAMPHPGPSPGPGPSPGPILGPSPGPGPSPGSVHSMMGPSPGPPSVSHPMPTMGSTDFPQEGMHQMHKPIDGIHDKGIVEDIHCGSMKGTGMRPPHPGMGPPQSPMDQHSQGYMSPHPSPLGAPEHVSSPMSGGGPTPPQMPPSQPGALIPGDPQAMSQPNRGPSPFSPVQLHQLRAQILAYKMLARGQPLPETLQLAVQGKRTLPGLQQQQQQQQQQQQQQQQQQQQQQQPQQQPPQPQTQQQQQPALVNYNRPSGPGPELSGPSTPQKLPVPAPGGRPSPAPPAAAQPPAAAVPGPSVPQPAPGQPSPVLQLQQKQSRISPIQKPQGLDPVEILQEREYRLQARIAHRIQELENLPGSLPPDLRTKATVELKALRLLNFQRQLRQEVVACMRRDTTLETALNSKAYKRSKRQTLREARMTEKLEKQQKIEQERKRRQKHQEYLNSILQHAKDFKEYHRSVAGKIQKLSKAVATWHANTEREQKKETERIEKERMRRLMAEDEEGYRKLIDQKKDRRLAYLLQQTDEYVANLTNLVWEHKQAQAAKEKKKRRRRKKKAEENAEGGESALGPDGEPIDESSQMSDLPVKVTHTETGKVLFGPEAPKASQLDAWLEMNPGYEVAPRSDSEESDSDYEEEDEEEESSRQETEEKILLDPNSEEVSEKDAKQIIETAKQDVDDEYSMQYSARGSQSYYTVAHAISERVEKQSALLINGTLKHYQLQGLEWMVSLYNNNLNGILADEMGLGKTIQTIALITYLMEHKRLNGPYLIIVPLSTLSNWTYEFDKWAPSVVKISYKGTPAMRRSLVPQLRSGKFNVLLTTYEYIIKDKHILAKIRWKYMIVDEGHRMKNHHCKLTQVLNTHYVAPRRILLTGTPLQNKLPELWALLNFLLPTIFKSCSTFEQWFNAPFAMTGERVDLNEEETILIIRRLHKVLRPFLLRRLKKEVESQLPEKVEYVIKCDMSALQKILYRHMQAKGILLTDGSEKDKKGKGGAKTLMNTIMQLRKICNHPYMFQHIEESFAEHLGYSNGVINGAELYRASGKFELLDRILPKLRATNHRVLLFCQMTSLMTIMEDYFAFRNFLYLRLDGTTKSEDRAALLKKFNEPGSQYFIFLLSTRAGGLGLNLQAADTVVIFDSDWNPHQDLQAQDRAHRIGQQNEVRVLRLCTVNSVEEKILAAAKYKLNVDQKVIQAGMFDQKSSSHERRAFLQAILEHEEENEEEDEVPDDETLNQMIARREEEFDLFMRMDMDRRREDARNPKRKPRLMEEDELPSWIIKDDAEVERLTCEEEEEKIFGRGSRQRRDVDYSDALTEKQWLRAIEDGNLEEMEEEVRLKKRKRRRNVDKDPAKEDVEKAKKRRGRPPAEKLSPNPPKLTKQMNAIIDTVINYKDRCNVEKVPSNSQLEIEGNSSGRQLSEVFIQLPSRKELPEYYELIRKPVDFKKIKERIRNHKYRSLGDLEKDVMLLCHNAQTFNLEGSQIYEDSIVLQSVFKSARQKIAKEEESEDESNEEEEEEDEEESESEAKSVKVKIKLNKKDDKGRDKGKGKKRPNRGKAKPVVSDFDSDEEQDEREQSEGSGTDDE

Structure (SMILES)	ΔTm [°C]
O=C(O)c1ccccc1O	1.3

The compounds below were run against T1, SWI/SNF-related matrix-associated actin-dependent regulator of chromatin subfamily A member 2 (assay: Inhibition of SMARCA2 (unknown origin)).

Structure (SMILES)	IC50 [µM]
COc1cc(CNCc2ccccn2)ccc1OCc1cccs1	17
COc1cc(CNCc2ccccn2)cc(Cl)c1OCc1ccc(Cl)cc1Cl	9.1
COc1cc(CNCc2ccccn2)ccc1OCc1ccccc1F	9
COc1cc(CNCc2ccccn2)ccc1OCc1cccc(Cl)c1	9.2
COc1cc(CNCc2ccccn2)cc(Cl)c1OCc1ccc(Cl)cc1	30.2

Source: ChEMBL document CHEMBL6134801, “SMARCA2 protein: Structure, function and perspectives of drug design” (Eur J Med Chem, 2025)
